Experimental findings from ChEMBL document CHEMBL1201862, “PubChem BioAssay data set” (2004) are described below.

SMILES strings stand for the structures.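 Protocol summary: plate cells (96-well), add compound at 5 concentrations, incubate 48 h, interpolate endpoints linearly. GI50 = concentration required for 50% inhibition of growth.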 Calls of active or inactive are those of the source. Cut-off read from the data, not from the text of the source: active = GI50 up to about 1.1 µM and inactive = higher.

The assay has as its system BT-549. Put plainly: growth of human tumour cells (NCI), 48 h.
With `Nc1cc(S(N)(=O)=O)ccc1SSc1ccc(S(N)(=O)=O)cc1N`, the GI50 is > 100 µM (inactive).
Regarding `Cn1cnc([N+](=O)[O-])c1Sc1nc(N)nc2c1ncn2Cc1ccccc1`, the GI50 is 22.1 µM (inactive).
As for `CN(C)Cc1ccc(O)c(CN(C)C)n1`, the figure is > 100 µM (inactive); as for `COc1cccc(C2CC(C)(O)Oc3cc4c(cc32)OCO4)c1O` (configuration not stated), 15.3 µM (inactive); as for `CCOP(=O)(CN1CCNCCN(CP(=O)(OCC)OCC)CC1)OCC`, > 100 µM (inactive).
As for `CCOc1cc(NC(C)=O)ccc1C(=O)NN1C(=O)C(Oc2ccccc2)C1c1ccc(O)c(OC)c1` (configuration not stated), the figure is 28.4 µM (inactive); as for `Cn1nnc2c3c(N(CCO)CCO)ccnc3ccc21`, > 100 µM (inactive).
Then `[N-]=[N+]=NC[C@H]1OCO[C@H](CN=[N+]=[N-])[C@@H](OCCOCCCl)[C@@H]1OCCOCCCl`, with > 100 µM (inactive); and `Fc1nc(-c2c3ccccc3c3sc4ccccc4n23)nc(N2CCOCCOCCOCCOCC2)n1`, with 87.1 µM (inactive).
As to `c1csc(-c2cscc2-c2cccs2)c1`, the GI50 is 63.4 µM (inactive).
As for `CN(C)CCNC1=CC(=O)c2nc3ccccc3c3ccnc1c23`, the figure is 7.26 µM (inactive).
`O=c1c2cc3c(=O)n4c(cc(-c5ccccc5)c5cc(Cl)ccc54)nc3cc2nc2cc(-c3ccccc3)c3cc(Cl)ccc3n12`: the GI50 is > 100 µM (inactive).
Then `N#Cc1c(N)c(C#N)c2c(c1-c1ccc(Cl)cc1)COc1ccccc1-2`, with 29.9 µM (inactive); and `CC(=O)C(=NNc1ccc(-n2c(C)nc3ccc(Br)cc3c2=O)cc1)C(C)=O`, with > 100 µM (inactive); and `Cc1cc2nc(C=C(C(F)(F)F)C(F)(F)F)oc2cc1C`, with 2.67 µM (inactive).
As for `Cc1cc2[nH]c3[nH]c(=O)[nH]c(=O)c3c2cc1C`, the figure is > 100 µM (inactive).
Then `N/C(=N\Nc1ccc(Cl)cc1)c1cnccn1`, with > 100 µM (inactive); and `NCCSS(=O)(=O)CCN`, with > 100 µM (inactive); and `Oc1ccc(/C=C\c2nnc(/C=C\c3ccc(O)c(O)c3)s2)cc1O`, with 7.19 µM (inactive).
As to `COc1ccc(C(=O)N2CCN(c3ccc4[nH]c(=O)oc4c3)CC2)cc1`, the GI50 was > 100 µM (inactive).
As to `COc1nc(SC)nc2c1C(O)n1c(nc3ccccc31)S2` (configuration not stated), the GI50 is 28.1 µM (inactive).
Take `C=C1C(C2(C)C(OC(C)=O)CC(=O)OC(C)(COC(C)=O)C2CC(=O)OC)C(OC=O)C(OC(=O)C(O)C(C)CC)C2(C)C(c3ccoc3)CC(=O)C12O` (configuration not stated): the GI50 was 4.33 µM (inactive).
As for `CC(C)/C(Cl)=N\OC(=O)Nc1ccccc1F`, the figure is 14.3 µM (inactive); as for `C[N+](C)(CCNC(=O)c1cccc2cc3ccccc3nc12)Cc1ccc([N+](=O)[O-])cc1`, > 100 µM (inactive); as for `Cc1ncc(CSC(=N)N)n1Cc1ccccc1`, > 100 µM (inactive).
As for `CCc1c(Cl)nc(Cl)nc1Cl`, the figure is 0.0199 µM (active).
Then `Nc1ncnc2c1ncn2[C@@H]1C[C@@H]1CO`, with > 100 µM (inactive); and `NC(=O)CSc1c2cc(O)ccc2nc2ccc(O)cc12`, with > 10 µM (inactive); and `COc1ccc(C(=O)N(Cc2cccnc2)C(=S)N(Cc2cccnc2)C(=O)c2ccc(OC)cc2)cc1`, with > 100 µM (inactive).
For `S=C(Nc1ccc(Cl)cc1)c1ccc(CN2CCCCC2)s1`, the GI50 was 8.26 µM (inactive).
Then `O[C@H]1[C@H](O)[C@H](O)CN2CCC[C@@H](O)[C@H]12`, with > 100 µM (inactive); and `CC(CNC(N)=O)NC(N)=O` (configuration not stated), with > 100 µM (inactive); and `CCn1c(=O)ccc2ccc(N(CCO)CCO)nc21`, with > 100 µM (inactive).
For the molecule `CCOC(=O)c1nnsc1NC(=O)Nc1ccc(Cc2ccc(NC(=O)Nc3snnc3C(=O)OCC)cc2)cc1`, the GI50 is > 100 µM (inactive).
Then `N=C(N)Nc1nc2cc([N+](=O)[O-])ccc2[nH]1`, with 48.1 µM (inactive); and `O=c1[nH]c(=O)n(C2CC(O)C(CO)O2)cc1I` (configuration not stated), with > 100 µM (inactive).
Then `CC(C)(C)c1ccc(-c2nc3ccccc3c(=O)o2)cc1`, with 24.2 µM (inactive).
